These results are taken from US12187723B2 (BRISTOL-MYERS SQUIBB COMPANY, priority 2019, dated 2025).

One test has as its target T1, human TLR8 (Homo sapiens, UniProt Q9NR97).
T1 construct: host or cells: HEK-Blue cells
T1 sequence (Q9NR97 27-1041): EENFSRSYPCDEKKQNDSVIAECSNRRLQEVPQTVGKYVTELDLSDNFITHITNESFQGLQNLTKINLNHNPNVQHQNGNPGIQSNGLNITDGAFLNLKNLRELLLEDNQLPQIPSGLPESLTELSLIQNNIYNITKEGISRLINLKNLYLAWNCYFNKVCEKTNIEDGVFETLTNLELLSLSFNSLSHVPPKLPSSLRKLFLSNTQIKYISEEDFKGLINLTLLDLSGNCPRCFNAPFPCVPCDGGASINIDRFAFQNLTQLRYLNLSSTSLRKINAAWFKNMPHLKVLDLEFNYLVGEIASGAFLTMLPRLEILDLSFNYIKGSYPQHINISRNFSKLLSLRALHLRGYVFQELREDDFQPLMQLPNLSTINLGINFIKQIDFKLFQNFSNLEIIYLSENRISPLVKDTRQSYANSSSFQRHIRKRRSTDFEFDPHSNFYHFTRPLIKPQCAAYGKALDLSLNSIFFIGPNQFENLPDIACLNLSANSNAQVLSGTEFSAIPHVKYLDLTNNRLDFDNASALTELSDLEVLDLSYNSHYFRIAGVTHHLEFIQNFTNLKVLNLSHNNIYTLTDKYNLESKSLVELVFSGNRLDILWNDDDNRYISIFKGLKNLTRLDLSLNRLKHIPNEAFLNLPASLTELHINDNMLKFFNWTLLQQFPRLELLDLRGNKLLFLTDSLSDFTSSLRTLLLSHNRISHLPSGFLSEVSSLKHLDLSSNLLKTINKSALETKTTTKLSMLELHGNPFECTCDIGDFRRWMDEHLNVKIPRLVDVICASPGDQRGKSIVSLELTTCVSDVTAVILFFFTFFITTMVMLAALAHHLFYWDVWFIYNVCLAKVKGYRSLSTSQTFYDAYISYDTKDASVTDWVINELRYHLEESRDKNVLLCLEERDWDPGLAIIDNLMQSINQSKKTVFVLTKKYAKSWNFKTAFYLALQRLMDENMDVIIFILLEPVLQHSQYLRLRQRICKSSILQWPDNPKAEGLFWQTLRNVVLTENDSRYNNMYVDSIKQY
The test can be described thus: TLR8 inhibition reporter assay (HEK-Blue SEAP). It counts as cell-based. The note with it: HEK-Blue cells overexpressing human TLR8, R848 15.9 μM, 22 hour incubation. Put shortly:
(§1)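 Human TLR7/8/9 HEK-Blue reporter lines; dose range 0.05 nM–50 μM; 30 min RT preincubation; stimulus gardiquimod 7.5 μM / R848 15.9 μM / ODN2006 5 nM respectively; 22 h, 37 °C; SEAP detected colorimetrically.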

A further test concerns the target T2, human TLR9 (Homo sapiens, UniProt Q9NR96).
T2 construct: host or cells: HEK-Blue cells
T2 sequence (Q9NR96 26-1032): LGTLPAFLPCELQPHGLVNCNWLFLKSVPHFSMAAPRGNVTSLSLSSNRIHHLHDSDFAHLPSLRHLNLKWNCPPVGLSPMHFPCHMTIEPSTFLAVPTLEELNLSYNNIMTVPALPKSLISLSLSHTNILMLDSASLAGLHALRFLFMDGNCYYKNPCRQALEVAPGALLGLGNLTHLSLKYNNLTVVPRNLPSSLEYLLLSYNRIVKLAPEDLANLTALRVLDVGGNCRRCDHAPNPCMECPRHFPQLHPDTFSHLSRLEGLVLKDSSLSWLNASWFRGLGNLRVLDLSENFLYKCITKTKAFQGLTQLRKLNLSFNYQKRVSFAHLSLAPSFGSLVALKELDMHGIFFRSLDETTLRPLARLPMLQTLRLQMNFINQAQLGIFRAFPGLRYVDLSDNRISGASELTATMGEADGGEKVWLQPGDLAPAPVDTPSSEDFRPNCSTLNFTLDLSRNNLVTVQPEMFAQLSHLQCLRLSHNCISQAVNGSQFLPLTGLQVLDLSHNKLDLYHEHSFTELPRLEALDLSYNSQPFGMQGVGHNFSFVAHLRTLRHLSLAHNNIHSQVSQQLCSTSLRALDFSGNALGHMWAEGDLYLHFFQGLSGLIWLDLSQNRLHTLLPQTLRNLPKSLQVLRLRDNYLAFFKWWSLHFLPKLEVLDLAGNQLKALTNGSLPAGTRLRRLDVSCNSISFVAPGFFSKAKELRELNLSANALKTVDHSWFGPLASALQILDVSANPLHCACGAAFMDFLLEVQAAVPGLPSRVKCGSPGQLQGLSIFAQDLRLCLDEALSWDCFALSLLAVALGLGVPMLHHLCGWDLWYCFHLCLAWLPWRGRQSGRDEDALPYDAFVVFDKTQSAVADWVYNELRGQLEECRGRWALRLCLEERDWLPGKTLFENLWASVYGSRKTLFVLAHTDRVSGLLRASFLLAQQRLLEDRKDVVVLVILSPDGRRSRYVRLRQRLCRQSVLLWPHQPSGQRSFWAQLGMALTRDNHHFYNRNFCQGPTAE
The experiment in a line: TLR9 inhibition reporter assay (HEK-Blue SEAP). Format: cell-based. The note with it: HEK-Blue cells overexpressing human TLR9, ODN2006 5 nM, 22 hour incubation. A digest of the protocol:
as §1
A general note: A reporter such as luciferase makes a cellular process visible.

A word on the IC50: it is the concentration needed to halve the response being measured. Read a high IC50 as weaker potency in that assay. With `Cc1cc2c(cc1-c1cc(C)c3ncnn3c1)[nH]c(=O)n2[C@H]1CC[C@@H](NCc2ncn(C)n2)CC1` [Example 33, 6-methyl-1-((1s,4s)-4-(((1-methyl-1H-1,2,4-triazol-3-yl)methyl)amino)cyclohexyl)-5-(8-methyl-[1,2,4]triazolo[1,5-a]pyridin-6-yl)-1,3-dihydro-2H-benzo[d]imidazol-2-one], the figures for the IC50 at human TLR8 and against human TLR9 were 10.9 nM and 21100 nM, respectively.
For `Cc1cc2c(cc1-c1cc(C)c3ncnn3c1)[nH]c(=O)n2[C@H]1CC[C@@H](NCC(C)(C)C)CC1` [Example 32, 6-methyl-5-(8-methyl-[1,2,4]triazolo[1,5-a]pyridin-6-yl)-1-((1s,4s)-4-(neopentylamino)cyclohexyl)-1,3-dihydro-2H-benzo[d]imidazol-2-one], the values for the IC50 against human TLR8 and at human TLR9 were 0.61 nM and 2340 nM, respectively.
For `Cc1cc2c(cc1-c1cc(C)c3ncnn3c1)[nH]c(=O)n2[C@@H]1CCCN(Cc2cccnc2)C1` [Example 46, (R)-6-methyl-5-(8-methyl-[1,2,4]triazolo[1,5-a]pyridin-6-yl)-1-(1-(pyridin-3-ylmethyl)piperidin-3-yl)-1,3-dihydro-2H-benzo[d]imidazol-2-one], in that order: 42.4 nM and 7670 nM.
For `COc1cc(-c2ccc3c(c2)[nH]c(=O)n3C2CCN(C3COC3)CC2)cn2ncnc12` [Example 80, 5-(8-methoxy-[1,2,4]triazolo[1,5-a]pyridin-6-yl)-1-(1-(oxetan-3-yl)piperidin-4-yl)-1,3-dihydro-2H-benzo[d]imidazol-2-one], in that order: more than 3130 nM and 39600 nM.
With `Cc1cc2c(cc1-c1cc(C)c3ncnn3c1)[nH]c(=O)n2[C@H]1CCCN(CC(=O)N(C)C)C1` [Example 93, (S)—N,N-dimethyl-2-(3-(6-methyl-5-(8-methyl-[1,2,4]triazolo[1,5-a]pyridin-6-yl)-2-oxo-2,3-dihydro-1H-benzo[d]imidazol-1-yl)piperidin-1-yl)acetamide], the IC50 stood at 105 nM against human TLR8 and 12600 nM on human TLR9.
Regarding `COc1cc(-c2ccc3c(c2)[nH]c(=O)n3C2CCN(C)CC2)cn2ncnc12` [Example 74, 5-(8-methoxy-[1,2,4]triazolo[1,5-a]pyridin-6-yl)-1-(1-methylpiperidin-4-yl)-1,3-dihydro-2H-benzo[d]imidazol-2-one], the IC50 at human TLR8 was more than 3130 nM; against human TLR9 it was 365 nM.
In the same order, the values of `COc1cc(-c2cc3[nH]c(=O)n([C@@H]4CCCN(CC(C)(C)C)C4)c3cc2C)cn2ncnc12` [Example 71, (R)-5-(8-methoxy-[1,2,4]triazolo[1,5-a]pyridin-6-yl)-6-methyl-1-(1-neopentylpiperidin-3-yl)-1,3-dihydro-2H-benzo[d]imidazol-2-one] are 147 nM and 29000 nM.
For the molecule `COc1cc(-c2cc3[nH]c(=O)n([C@@H]4CCCN(C5COC5)C4)c3cc2C)cn2ncnc12` [Example 72, (R)-5-(8-methoxy-[1,2,4]triazolo[1,5-a]pyridin-6-yl)-6-methyl-1-(1-(oxetan-3-yl)piperidin-3-yl)-1,3-dihydro-2H-benzo[d]imidazol-2-one], the IC50 against human TLR8 was 249 nM; against human TLR9, 45800 nM.
`CCCN[C@H]1CC[C@@H](n2c(=O)[nH]c3cc(-c4cc(OC)c5ncnn5c4)c(C)cc32)CC1` [Example 64, 5-(8-methoxy-[1,2,4]triazolo[1,5-a]pyridin-6-yl)-6-methyl-1-((1s,4s)-4-(propylamino)cyclohexyl)-1,3-dihydro-2H-benzo[d]imidazol-2-one]: the results for the IC50 on human TLR8 and on human TLR9 were 1.76 nM and 5490 nM, respectively.
Regarding `CCC(CC)N1CCC[C@@H](n2c(=O)[nH]c3cc(-c4cc(OC)c5ncnn5c4)c(C)cc32)C1` [Example 67, (R)-5-(8-methoxy-[1,2,4]triazolo[1,5-a]pyridin-6-yl)-6-methyl-1-(1-(pentan-3-yl)piperidin-3-yl)-1,3-dihydro-2H-benzo[d]imidazol-2-one], the IC50 amounted to 52 nM against human TLR8 and 9620 nM against human TLR9.
As for `COc1cc(-c2cc3[nH]c(=O)n([C@H]4CC[C@@H](NC5COC5)CC4)c3cc2C)cn2ncnc12` [Example 59, 5-(8-methoxy-[1,2,4]triazolo[1,5-a]pyridin-6-yl)-6-methyl-1-((1s,4s)-4-(oxetan-3-ylamino)cyclohexyl)-1,3-dihydro-2H-benzo[d]imidazol-2-one], the IC50 turned out to be 18.8 nM at human TLR8 and 7570 nM at human TLR9.
In the case of `Cc1cc2c(cc1-c1cc(C)c3ncnn3c1)[nH]c(=O)n2C1CCN(C(C)C)CC1` [Example 2, 1-(1-isopropylpiperidin-4-yl)-6-methyl-5-(8-methyl-[1,2,4]triazolo[1,5-a]pyridin-6-yl)-1,3-dihydro-2H-benzo[d]imidazol-2-one], the values for the IC50 on human TLR8 and against human TLR9 were 107 nM and 5560 nM, respectively.
In the case of `Cc1cc2c(cc1-c1cc(C)c3ncnn3c1)[nH]c(=O)n2[C@H]1CCCN(CC(N)=O)C1` [Example 92, (S)-2-(3-(6-methyl-5-(8-methyl-[1,2,4]triazolo[1,5-a]pyridin-6-yl)-2-oxo-2,3-dihydro-1H-benzo[d]imidazol-1-yl)piperidin-1-yl)acetamide], the results for the IC50 at human TLR8 and against human TLR9 were 177 nM and 21100 nM, respectively.
As for `COc1cc(-c2cc3[nH]c(=O)n([C@H]4CC[C@@H](NCC(C)C)CC4)c3cc2C)cn2ncnc12` [Example 61, 1-((1s,4s)-4-(isobutylamino)cyclohexyl)-5-(8-methoxy-[1,2,4]triazolo[1,5-a]pyridin-6-yl)-6-methyl-1,3-dihydro-2H-benzo[d]imidazol-2-one], the IC50 came out at 2.35 nM against human TLR8 and 5510 nM at human TLR9.
Consider `COc1cc(-c2cc3[nH]c(=O)n([C@@H]4CCCN(C5CCOCC5)C4)c3cc2C)cn2ncnc12` [Example 70, (R)-5-(8-methoxy-[1,2,4]triazolo[1,5-a]pyridin-6-yl)-6-methyl-1-(1-(tetrahydro-2H-pyran-4-yl)piperidin-3-yl)-1,3-dihydro-2H-benzo[d]imidazol-2-one], for which the IC50 at human TLR8 came out at 117 nM; against human TLR9 it was 17600 nM.
In the same order, the values of `COc1cc(-c2cc3[nH]c(=O)n([C@@H]4CCCN(CCC(F)(F)F)C4)c3cc2C)cn2ncnc12` [Example 68, (R)-5-(8-methoxy-[1,2,4]triazolo[1,5-a]pyridin-6-yl)-6-methyl-1-(1-(3,3,3-trifluoropropyl)piperidin-3-yl)-1,3-dihydro-2H-benzo[d]imidazol-2-one] are 121 nM and 27100 nM.
For `Cc1cc2c(cc1-c1cc(C)c3ncnn3c1)[nH]c(=O)n2[C@@H]1CCCN(CC2CCOCC2)C1` [Example 41, (R)-6-methyl-5-(8-methyl-[1,2,4]triazolo[1,5-a]pyridin-6-yl)-1-(1-((tetrahydro-2H-pyran-4-yl)methyl)piperidin-3-yl)-1,3-dihydro-2H-benzo[d]imidazol-2-one], in that order: 27.1 nM and 8120 nM.
